Values of other authors as cited in PMC6311893, “Computational prediction of plasma protein binding of cyclic peptides from small molecule experimental data using sparse modeling techniques” (BMC Bioinformatics, 2018).
Read-outs that look alike come from different tables or passages of the source.

Tested on: plasma protein
Details: cited from earlier work
[1] = fraction bound to plasma protein, small molecule dataset, sheet 1-SM (Set Dte = test, Dtr = training), ref Ingle et al.
[2] = fraction bound to plasma protein, small molecule dataset, sheet 1-SM, Set Dtr, ref Ingle et al.

Row | SMILES | PPB (fb) [1] | PPB (fb) [2] | also measured
1 | CCCc1oc(CCC(=O)O)c(C(=O)O)c1C | 0.99 |  | 
2 | O=C1CCC(Cc2ccc(O)c(O)c2)O1 (centres unmarked) | 0.35 |  | 
3 | C#C[C@]1(O)CC[C@H]2[C@@H]3CCC4=CC(=NO)CC[C@@H]4[C@H]3CC[C@@]21CC (mixture of isomers) [norelgestromin] |  |  | PPB (fb) (fraction bound to plasma protein, small molecule dataset, sheet 1-SM, ref Ingle et al.): 0.97
4 | COc1ccc(O)cc1C(C)(C)C [2-butyl-4-hydroxyanisole] | 0.85 |  | 
5 | O=C(O)c1cn(-c2cccc(F)c2)c2cc(N3CCNCC3)c(F)cc2c1=O [2b(m-F)] | 0.51 |  | 
6 | O=C(O)c1cn(-c2ccc(F)cc2)c2cc(N3CCNCC3)c(F)cc2c1=O [2c(p-F)] | 0.31 |  | 
7 | C=CC1(O)CN2CCC1CC2C(O)c1ccnc2ccc(OC)cc12 (centres unmarked) [3-Hydroxy Quinidine] |  |  | PPB (fb) (plasma): 0.6
8 | O=C(O)c1cn(-c2ccccc2C(F)(F)F)c2cc(N3CCNCC3)c(F)cc2c1=O [3a(o-CF3)] | 0.38 |  | 
9 | O=C(O)c1cn(-c2cccc(C(F)(F)F)c2)c2cc(N3CCNCC3)c(F)cc2c1=O [3b(m-CF3)] | 0.62 |  | 
10 | O=C(O)c1cn(-c2ccc(C(F)(F)F)cc2)c2cc(N3CCNCC3)c(F)cc2c1=O [3c(p-CF3)] | 0.42 |  | 
11 | Nc1ccc(C(=O)O)c(O)c1 [4-aminosalicylic acid] |  |  | PPB (fb): 0.62
12 | Cc1ccccc1-n1cc(C(=O)O)c(=O)c2cc(F)c(N3CCNCC3)cc21 [4a(o-CH3)] | 0.37 |  | 
13 | COc1ccccc1-n1cc(C(=O)O)c(=O)c2cc(F)c(N3CCNCC3)cc21 [5a(o-OCH3)] | 0.29 |  | 
14 | COc1cccc(-n2cc(C(=O)O)c(=O)c3cc(F)c(N4CCNCC4)cc32)c1 [5b(m-OCH3)] | 0.35 |  | 
15 | COc1cccc(-n2cc(C(=O)O)c(=O)c3cc(F)c(N4CCN(C)CC4)cc32)c1 [5ba(m-OCH3__N-CH3)] | 0.54 |  | 
16 | COc1ccc(-n2cc(C(=O)O)c(=O)c3cc(F)c(N4CCNCC4)cc32)cc1 [5c(p-OCH3)] | 0.31 |  | 
17 | COc1ccc(-n2cc(C(=O)O)c(=O)c3cc(F)c(N4CCN(C)CC4)cc32)cc1 [5ca (p-OCH3__N-CH3)] | 0.43 |  | 
18 | CCN1CCN(c2cc3c(cc2F)c(=O)c(C(=O)O)cn3-c2ccc(OC)cc2)CC1 [5cb (p-OCH3__N-C2H5)] | 0.51 |  | 
19 | CCCN1CCN(c2cc3c(cc2F)c(=O)c(C(=O)O)cn3-c2ccc(OC)cc2)CC1 [5cc (p-OCH3__ N- C3H7] | 0.54 |  | 
20 | O=C(O)c1cn(-c2cccc([N+](=O)[O-])c2)c2cc(N3CCNCC3)c(F)cc2c1=O [7b(m-NO2)] | 0.66 |  | 
21 | O=C(O)c1cn(-c2ccc([N+](=O)[O-])cc2)c2cc(N3CCNCC3)c(F)cc2c1=O [7c(p-NO2)] | 0.3 |  | 
22 | O=C(O)c1cn(-c2cccc(O)c2)c2cc(N3CCNCC3)c(F)cc2c1=O [8b(m-OH)] | 0.35 |  | 
23 | O=C(O)c1cn(-c2ccc(O)cc2)c2cc(N3CCNCC3)c(F)cc2c1=O [8c(p-OH)] | 0.35 |  | 
24 | Cc1nc2n(c(=O)c1CCN1CCC(c3noc4cc(F)ccc34)CC1)CCCC2O (centres unmarked) [9-Hydroxyrisperidone] | 0.77 |  | 
25 | NC(=O)N1c2ccccc2CC(O)c2ccccc21 (centres unmarked) [10-hydroxycarbazepine] | 0.62 |  | 
26 | CC12CCC3c4ccc(O)cc4CCC3C1CCC2O (centres unmarked) [17-a-estradiol] | 0.98 |  | 
27 | CC(=O)C1(O)CCC2C3CCC4=CC(=O)CCC4(C)C3CCC21C (centres unmarked) [17-hydroxyprogesterone] |  |  | PPB (fb) (plasma): 0.85

Row | SMILES | PPB (fb) [1] | PPB (fb) [2] | also measured
28 | COC1/C=C/OC2(C)Oc3c(C)c(O)c4c(O)c(c(/C=N/N5CCN(C6CCCC6)CC5)c(O)c4c3C2=O)NC(=O)/C(C)=C\C=C\C(C)C(O)C(C)C(O)C(C)C(O)C1C (centres unmarked) [25-desacetylrifapentine] | 0.98 |  | 
29 | Nc1nc(NC2CC2)c2ncn([C@H]3C=C[C@@H](CO)C3)c2n1 [Abacavir] |  | 0.5 | 
30 | CCCC(=O)Nc1ccc(OCC(O)CNC(C)C)c(C(C)=O)c1 (centres unmarked) [Acebutolol] |  | 0.24 | 
31 | CCN(CC)CCNC(=O)c1ccc(NC(C)=O)cc1 [Acecainide (N-acetylprocainamide)] |  | 0.1 | 
32 | CC(=O)Nc1nnc(S(N)(=O)=O)s1 [Acetazolamide] |  | 0.92 | 
33 | CC(=O)NC(CS)C(=O)O (centres unmarked) [Acetylcysteine__ N-] |  | 0.83 | 
34 | Nc1ncnc2c1ncn2CCOCP(=O)(O)O [Adefovir] |  | 0.04 | 
35 | CN(C)Cc1nnc2n1-c1ccc(Cl)cc1C(c1ccccc1)=NC2 [Adinazolam] |  |  | PPB (fb) (plasma): 0.69
36 | CC(C)(C)NCC(O)c1ccc(O)c(CO)c1 (centres unmarked) [Albuterol (salbutamol)] |  | 0.09 | 
37 | Oc1ncnc2[nH]ncc12 [Allopurinol] |  | 0.02 | 
38 | CN(C)CCc1c[nH]c2ccc(CS(=O)(=O)N3CCCC3)cc12 [Almotriptan] |  | 0.37 | 
39 | Cc1[nH]cnc1CN1CCc2c(c3ccccc3n2C)C1=O [Alosetron] |  | 0.72 | 
40 | Cc1nnc2n1-c1ccc(Cl)cc1C(c1ccccc1)=NC2 [Alprazolam] |  |  | PPB (fb) (plasma): 0.72
41 | C=CCc1ccccc1OCC(O)CNC(C)C (centres unmarked) [Alprenolol] |  | 0.81 | 
42 | NCC[C@H](O)C(=O)N[C@@H]1C[C@H](N)[C@@H](O[C@H]2O[C@H](CN)[C@@H](O)[C@H](O)[C@H]2O)[C@H](O)[C@H]1O[C@H]1O[C@H](CO)[C@@H](O)[C@H](N)[C@H]1O [Amikacin] |  | 0.09 | 
43 | NCCCCCC(=O)O [Aminohexanoic acid] |  | 0.08 | 
44 | Nc1ccc(O)c(C(=O)O)c1 [Aminosalicylic acid__ 5-] |  | 0.61 | 
45 | CN(C)CCC=C1c2ccccc2CCc2ccccc21 [Amitriptyline] | 0.94 |  | 
46 | CC1(C)S[C@@H]2[C@H](NC(=O)[C@H](N)c3ccc(O)cc3)C(=O)N2[C@H]1C(=O)O [Amoxicillin] |  | 0.17 | 
47 | CC1(C)S[C@@H]2[C@H](NC(=O)[C@H](N)c3ccccc3)C(=O)N2[C@H]1C(=O)O [Ampicillin] |  |  | PPB (fb) (plasma): 0.16
48 | Nc1cc(-c2ccncc2)c[nH]c1=O [Amrinone] |  | 0.11 | 
49 | COc1cc(NS(C)(=O)=O)ccc1Nc1c2ccccc2nc2ccccc12 [Amsacrine] |  | 0.98 | 
50 | Cc1cc(=O)n(-c2ccccc2)n1C [Antipyrine] |  |  | PPB (fb) (plasma): 0.07
51 | CN1CCc2cccc3c2[C@H]1Cc1ccc(O)c(O)c1-3 [Apomorphine] |  | 0.94 | 
52 | C[C@@H](O[C@H]1OCCN(Cc2n[nH]c(=O)[nH]2)[C@H]1c1ccc(F)cc1)c1cc(C(F)(F)F)cc(C(F)(F)F)c1 [Aprepitant] |  | 0.95 | 
53 | O=C1CCc2ccc(OCCCCN3CCN(c4cccc(Cl)c4Cl)CC3)cc2N1 [Aripiprazole] |  | 0.99 | 
54 | C[C@H]1[C@H](OC(=O)CCC(=O)O)O[C@@H]2O[C@@]3(C)CC[C@H]4[C@H](C)CC[C@@H]1[C@@]24OO3 [Artesunate] |  | 0.75 | 

Row | SMILES | PPB (fb) [1] | PPB (fb) [2] | also measured
55 | CC(=O)Oc1ccccc1C(=O)O [Aspirin] |  | 0.43 | 
56 | COC(=O)N[C@H](C(=O)N[C@@H](Cc1ccccc1)[C@@H](O)CN(Cc1ccc(-c2ccccn2)cc1)NC(=O)[C@@H](NC(=O)OC)C(C)(C)C)C(C)(C)C [Atazanavir] | 0.86 |  | 
57 | CNCC[C@@H](Oc1ccccc1C)c1ccccc1 [Atomoxetine] |  | 0.97 | 
58 | CN1CCCC(n2nc(Cc3ccc(Cl)cc3)c3ccccc3c2=O)CC1 (centres unmarked) [Azelastine] |  | 0.85 | 
59 | CN1CCN(CCCCN2C(=O)CN(/N=C/c3ccc(-c4ccc(Cl)cc4)o3)C2=O)CC1 [Azimilide] |  | 0.94 | 
60 | CC[C@H]1OC(=O)[C@H](C)[C@@H](O[C@H]2C[C@@](C)(OC)[C@@H](O)[C@H](C)O2)[C@H](C)[C@@H](O[C@@H]2O[C@H](C)C[C@H](N(C)C)[C@H]2O)[C@](C)(O)C[C@@H](C)CN(C)[C@H](C)[C@@H](O)[C@]1(C)O [Azithromycin] |  | 0.23 | 
61 | CC1(C)S[C@@H]2[C@H](NC(=O)[C@H](NC(=O)N3CCNC3=O)c3ccccc3)C(=O)N2[C@H]1C(=O)O [Azlocillin] |  | 0.32 | 
62 | C[C@H]1[C@H](NC(=O)/C(=N\OC(C)(C)C(=O)O)c2csc(N)n2)C(=O)N1S(=O)(=O)O [Aztreonam] |  | 0.58 | 
63 | CCC(=O)OCC(=O)[C@@]1(OC(=O)CC)[C@@H](C)C[C@H]2[C@@H]3CCC4=CC(=O)C=C[C@]4(C)[C@@]3(Cl)[C@@H](O)C[C@@]21C [Beclomethasone dipropionate] |  | 0.87 | 
64 | O=C(O)CN1C(=O)[C@@H](N[C@@H](CCc2ccccc2)C(=O)O)CCc2ccccc21 [Benazeprilat] | 0.95 |  | 
65 | C[C@H]1C[C@H]2[C@@H]3CCC4=CC(=O)C=C[C@]4(C)[C@@]3(F)[C@@H](O)C[C@]2(C)[C@@]1(O)C(=O)CO [Betamethasone] |  | 0.66 | 
66 | O=C(O)CCNC(=O)c1ccccc1 [Betamipron] |  | 0.83 | 
67 | CC(C)NCC(O)COc1ccc(CCOCC2CC2)cc1 (centres unmarked) [Betaxolol] |  | 0.56 | 
68 | COc1ccc(CCNCC(O)COc2cccc(C)c2)cc1OC (centres unmarked) [Bevantolol] | 0.97 |  | 
69 | C=C(c1ccc(C(=O)O)cc1)c1cc2c(cc1C)C(C)(C)CCC2(C)C [Bexarotene] | 0.99 |  | 
70 | CN(C)CCN(C)N1C=C(c2ccccc2)C2C=CC=CC21 (centres unmarked) [Binedaline] | 0.96 |  | 
71 | OC(CCN1CCCCC1)(c1ccccc1)C1CC2C=CC1C2 (centres unmarked) [Biperiden] |  | 0.93 | 
72 | CC(C)NCC(O)COc1ccc(COCCOC(C)C)cc1 (centres unmarked) [Bisoprolol] | 0.32 |  | 
73 | COc1ccccc1Oc1c(NS(=O)(=O)c2ccc(C(C)(C)C)cc2)nc(-c2ncccn2)nc1OCCO [Bosentan] |  | 0.97 | 
74 | O=C1CN=C(c2ccccn2)c2cc(Br)ccc2N1 [Bromazepam] |  |  | PPB (fb) (plasma): 0.61
75 | CCN(CC)CCNC(=O)c1cc(Br)c(N)cc1OC [Bromopride] | 0.4 |  | 
76 | COc1cc(OC)c(C(=O)CCCN2CCCC2)c(OC)c1 [Buflomedil] |  | 0.6 | 
77 | CCCCNc1cc(C(=O)O)cc(S(N)(=O)=O)c1Oc1ccccc1 [Bumetanide] |  | 0.96 | 
78 | CCCC(=O)N1CCCN(c2nc(N)c3cc(OC)c(OC)cc3n2)CC1 [Bunazosin] | 0.95 |  | 
79 | CCCCN1CCCCC1C(=O)Nc1c(C)cccc1C (centres unmarked) [Bupivacaine] |  | 0.95 | 
80 | CS(=O)(=O)OCCCCOS(C)(=O)=O [Busulphan] |  | 0.04 | 
